In patent publication US11945811B2, “Potassium channel inhibitors” (ACESION PHARMA APS, priority 2021, dated 2024) one finds IC50 data, which are given here for 23 molecules.

Molecules are shown by their SMILES.

The experiment concerns the target T1, human SK3 channel (hKCa2.3) (Homo sapiens, UniProt Q9UGI6).
T1 construct: expressed in transfected cells
As to the kind of experiment: Automated patch clamping (QPatch 16 HT whole-cell recordings). Type of experiment: cell-based. Conditions: HEK-293 cells stably expressing hKCa2.3; currents measured at −80 mV; normalized to N-methyl bicuculline; read-out: IC50 in the Automated patch clamping assay (SK3 channel inhibition). As to the method:
Automated whole cell patch-clamp recordings were performed using a QPatch 16 HT system and single-hole Qplates (Sophion, Denmark) on HEK-293 cells stably expressing the human SK3 channel (hKCa2.3). Cells were cultured and prepared for experiments using normal cell culturing procedures. A total of 4-5 million cells were used per experiment. The Qpatch automatically generates giga sealing, whole-cell formation, compound application and recording of current. hKCa2.3 currents were recorded in symmetrical K^+ solutions. The intracellular/pipette solution contained 154 mM KCl, 10 mM HEPES and 10 mM EGTA. CaCl2 is added to give calculated free concentrations of Ca^2+ of 0.4 μM and MgCl2 is added to give a free concentration of 1 mM. In order to maintain a total [K^+] of 156 mM (corresponding to the concentration in the extracellular ringer) a fixed amount of KOH (15 mM) is added, thereafter pH is adjusted with HCl to pH=7.2. Expected osmolarity: 275 mOsm. Sucrose was added to a final osmolarity around 295 mosm. The extracellular solution consisted of (in mM): CaCl2 0.1, MgCl2 3, KCl 150, HEPES 10 and glucose 10, pH=7.4 adjusted with KOH. Osmolarity between 285-295 mosm. The cells were held at 0 mV and hKCa2.3 currents were elicited by a linear voltage ramp from −80 mV to +80 mV (200 ms in duration) applied every 5th second.
The compound application protocol consisted of 12 recording periods lasting 200 s: 1) Baseline recordings in extracellular solution; 2) Application of the positive control N-methyl bicuculline (100 μM), which is characterized by full efficacy, fast on- and off-rate; 3-4) Wash-out; 5-10) Increasing concentrations of test compound to establish an IC50 value; 11-12) Wash-out; 13) positive control with compound NS8593 (N-[(1R)-1,2,3,4-tetrahydro-1-naphthalenyl]-1H-benzimidazol-2-amine) (1 μM) or with N-methyl bicuculline (100 μM). Data were sampled at 10 kHz, 4th order Bessel filter, cut-off frequency 3 kHz. Currents were compensated for run-down. Potency was quantified as the concentration needed to inhibit half of the SK channel activity and reported as an IC50 value.
All effects of compounds of the present invention as tested were normalized to the observed inhibitory effect of N-methyl bicuculline. Currents were measured at −80 mV.
(In general: The patch-clamp technique gives a direct electrical read-out from membranes.)
Regarding `CC(CO)(Nc1nc2c(Cn3ccoc3=N)cccc2[nH]1)c1ccc(Cl)c(Cl)c1` (single isomer, unassigned) [Example 19a], the IC50 (in general, the concentration needed to halve the response being measured) is under 1 µM.

Consider `Cc1cn(Cc2cccc3[nH]c(NC(C)(CO)c4cccc(C(F)(F)F)c4)nc23)c(=N)o1` (single isomer, unassigned) [Example 24a], for which the IC50 is under 30 µM. Turning to `CC(CO)(Nc1nc2c(Cn3ccoc3=N)cccc2[nH]1)c1cccc(OC(F)(F)F)c1` (single isomer, unassigned) [Example 27b], the IC50 is under 30 µM.

Take `CC(CO)(Nc1nc2c(Cn3ccoc3=N)cccc2[nH]1)c1ccc(Cl)c(F)c1` (single isomer, unassigned) [Example 39a, 2-(4-chloro-3-fluorophenyl)-2-({4-[(2-imino-2,3-dihydro-1,3-oxazol-3-yl)methyl]-1H-1,3-benzodiazol-2-yl}amino)propan-1-ol]: the IC50 is under 1 µM.

Take `CC(CO)(Nc1nc2c(Cn3ccoc3=N)cccc2[nH]1)c1ccc(Cl)c(F)c1` (single isomer, unassigned) [Example 39b, 2-(4-chloro-3-fluorophenyl)-2-({4-[(2-imino-2,3-dihydro-1,3-oxazol-3-yl)methyl]-1H-1,3-benzodiazol-2-yl}amino)propan-1-ol]: the IC50 is under 30 µM. To `CC(CO)(Nc1nc2c(CNc3ccon3)cccc2[nH]1)c1cccc(Cl)c1F` (single isomer, unassigned) [Example 43a] belongs under 30 µM. As for `CC(CO)(Nc1nc2c(CNc3ccon3)cccc2[nH]1)c1ccc(Cl)c(F)c1` (single isomer, unassigned) [Example 44a], the IC50 is under 30 µM. In the case of `CC(CO)(Nc1nc2c(Cn3ccoc3=N)cccc2[nH]1)c1cc(F)cc(Cl)c1` (single isomer, unassigned) [Example 45a] it was under 1 µM; in that of `CC(CO)(Nc1nc2c(Cn3ccoc3=N)cccc2[nH]1)c1cc(Cl)ccc1F` (single isomer, unassigned) [Example 47a], under 1 µM. Regarding `CC(CO)(Nc1nc2c(Cn3ccoc3=N)cccc2[nH]1)c1cccc(Cl)c1` (single isomer, unassigned; (+)) [Example 3b, (+)-2-(3-chlorophenyl)-2-({4-[(2-imino-2,3-dihydro-1,3-oxazol-3-yl)methyl]-1H-1,3-benzodiazol-2-yl}amino)propan-1-ol], the IC50 is under 30 µM. As to `CC(CO)(Nc1nc2c(Cn3ccoc3=N)cccc2[nH]1)c1ccc(F)c(Cl)c1` (single isomer, unassigned; (+)) [Example 8b, (+)-2-(3-chloro-4-fluorophenyl)-2-({4-[(2-imino-2,3-dihydro-1,3-oxazol-3-yl)methyl]-1H-1,3-benzodiazol-2-yl}amino)propan-1-ol], the IC50 is under 30 µM. To `Cc1cc(NCc2cccc3[nH]c(NC(C)(CO)c4ccc(F)c(Cl)c4)nc23)no1` (single isomer, unassigned; (+)) [Example 12b, (+)-2-(3-chloro-4-fluorophenyl)-2-((4-(((5-methylisoxazol-3-yl)amino)methyl)-1H-benzo[d]imidazol-2-yl)amino)propan-1-ol] belongs under 30 µM. For the molecule `CC(CO)(Nc1nc2c(Cn3ccoc3=N)cccc2[nH]1)c1cccc(C(F)(F)F)c1` (single isomer, unassigned; (+)) [Example 18b, (+)-2-({4-[(2-imino-2,3-dihydro-1,3-oxazol-3-yl)methyl]-1H-1,3-benzodiazol-2-yl}amino)-2-[3-(trifluoromethyl)-phenyl]propan-1-ol], the IC50 is under 30 µM.

For `CC(CO)(Nc1nc2c(Cn3ccoc3=N)cccc2[nH]1)c1ccc(Cl)c(Cl)c1` (single isomer, unassigned; (+)) [Example 19b, (+)-2-(3,4-dichlorophenyl)-2-({4-[(2-imino-2,3-dihydro-1,3-oxazol-3-yl)methyl]-1H-1,3-benzodiazol-2-yl}amino)propan-1-ol], the IC50 was under 30 µM. Consider `Cc1cn(Cc2cccc3[nH]c(NC(C)(CO)c4cccc(C(F)(F)F)c4)nc23)c(=N)o1` (single isomer, unassigned; (+)) [Example 24b, (+)-2-({4-[(2-imino-5-methyl-2,3-dihydro-1,3-oxazol-3-yl)methyl]-1H-1,3-benzodiazol-2-yl}amino)-2-[3-(trifluoromethyl)-phenyl]propan-1-ol], for which the IC50 is under 1 µM.

With `CC(CO)(Nc1nc2c(Cn3ccoc3=N)cccc2[nH]1)c1cccc(OC(F)(F)F)c1` (single isomer, unassigned; (+)) [Example 27a, (+)-2-({4-[(2-imino-2,3-dihydro-1,3-oxazol-3-yl)methyl]-1H-1,3-benzodiazol-2-yl}amino)-2-[3-(trifluoromethoxy)phenyl]propan-1-ol], the IC50 was under 1 µM. Regarding `CC(CO)(Nc1nc2c(Cn3ccoc3=N)cccc2[nH]1)c1cccc(Cl)c1F` (single isomer, unassigned; (+)) [Example 41b, (+)-2-(3-chloro-2-fluorophenyl)-2-({4-[(2-imino-2,3-dihydro-1,3-oxazol-3-yl)methyl]-1H-1,3-benzodiazol-2-yl}amino)propan-1-ol], the IC50 is under 30 µM. In the case of `CC(CO)(Nc1nc2c(CNc3ncco3)cccc2[nH]1)c1cccc(Cl)c1F` (single isomer, unassigned; (+)) [Example 42a, (+)-2-(3-chloro-2-fluorophenyl)-2-[(4-{[(1,3-oxazol-2-yl)amino]methyl}-1H-1,3-benzodiazol-2-yl)amino]propan-1-ol] it was under 30 µM; in that of `CC(CO)(Nc1nc2c(Cn3ccoc3=N)cccc2[nH]1)c1cc(F)cc(Cl)c1` (single isomer, unassigned; (+)) [Example 45b, (+)-2-(3-chloro-5-fluorophenyl)-2-({4-[(2-imino-2,3-dihydro-1,3-oxazol-3-yl)methyl]-1H-1,3-benzodiazol-2-yl}amino)propan-1-ol], under 30 µM. In the case of `CC(CO)(Nc1nc2c(Cn3ccoc3=N)cccc2[nH]1)c1cc(Cl)ccc1F` (single isomer, unassigned; (+)) [Example 47b, (+)-2-(5-chloro-2-fluorophenyl)-2-({4-[(2-imino-2,3-dihydro-1,3-oxazol-3-yl)methyl]-1H-1,3-benzodiazol-2-yl}amino)propan-1-ol] it was under 30 µM; in that of `CC(CO)(Nc1nc2c(CNc3ncco3)cccc2[nH]1)c1cc(Cl)ccc1F` (single isomer, unassigned; (+)) [Example 48a, (+)-2-(5-chloro-2-fluorophenyl)-2-[(4-{[(1,3-oxazol-2-yl)amino]methyl}-1H-1,3-benzodiazol-2-yl)amino]propan-1-ol], under 30 µM.

For the molecule `CC(CO)(Nc1nc2c(CNc3ccon3)cccc2[nH]1)c1cc(Cl)ccc1F` (single isomer, unassigned; (+)) [Example 49a, (+)-2-(5-chloro-2-fluorophenyl)-2-[(4-{[(1,2-oxazol-3-yl)amino]methyl}-1H-1,3-benzodiazol-2-yl)amino]propan-1-ol], the IC50 is under 30 µM. For the molecule `CC(CO)(Nc1nc2c(Cn3ccoc3=N)cccc2[nH]1)c1cccc(Cl)c1` (single isomer, unassigned; (-)) [Example 3a, (−)-2-(3-chlorophenyl)-2-({4-[(2-imino-2,3-dihydro-1,3-oxazol-3-yl)methyl]-1H-1,3-benzodiazol-2-yl}amino)propan-1-ol], the IC50 is under 1 µM.
